# Assay results as given in patent publication US20130231347A1, “METHOD OF TREATMENT WITH BRAF INHIBITOR” (GLAXOSMITHKLINE INTELLECTUAL PROPERTY (NO.2) LIMITED, priority 2010, published 2013).
# Where two headings read alike, the source gives them in different places.
# Columns and labels:
# [1] = system: A375 F11 clones that acquired resistance to Compound A; assay: Cell growth inhibition assay, resistant A375 clones taken together; details: Homo sapiens
# Experimental: (§3) A clonal isolate, hereinafter referred to as “A375 F11”, was obtained from the A375 cell line (obtained from ATCC), based on increased sensitivity to a BRAF inhibitor. A375 F11 cells were exposed to increasing concentrations of Compound A and maintained in a final concentration of 1.26 μM or 1.6 μM. 12R5-3, 12R8-1, 12R8-3, 16R5-5, 16R6-2, 16R6-3 and 16R6-4 were derived as single cell clones from mixed populations of these A375 F11 cells selected to grow in the presence of Compound A. All cells were grown in RPMI 1640 medium containing 10% Fetal Bovine Serum (FBS).
# (§4) All cells were cultured without compound, e.g. Compound A, for a minimum of 72 hours prior to cell plating. Cells were assayed in a 96-well tissue culture plate (NUNC 136102) of RPMI medium containing 10% FBS for all cells at 1,000 cells per well. Approximately 24 hours after plating, cells were exposed to ten, three-fold serial dilutions of compound or the combination of the two agents at a constant molar to molar ratio, e.g. 10:1 Compound A to Compound B, in RPMI media containing 10% FBS. Cells were incubated in the presence of compounds for 3 days. ATP levels were determined by adding Cell Titer Glo® (Promega) according to the manufacturer's protocol. Briefly, Cell Titer Glo® was added each plate, incubated for 30 minutes then luminescent signal was read on the SpectraMax L plate reader with a 0.5 sec integration time. Inhibition of cell growth was estimated after treatment with compound or combination of compounds for three days and comparing the Cell Titer Glo® signal to cells treated with vehicle (DMSO). Cell growth was calculated relative to vehicle (DMSO) treated control wells.
# (§5) For single agent and combination treatments, cells were exposed to compounds at a fixed-dose-ratio, and dose response curves were fit to the experimental data and analyzed using regression models.
# [2] = system: 12R5-3 (A375 F11 clone with acquired resistance to Compound A); assay: Cell growth inhibition assay (Cell Titer Glo, 3 days); assay type: cell-based; details: Homo sapiens, A-375, 72 h, 12R5-3: NRAS A146A/T, MEK1 WT, single agent, read-out: IC50, Single Agent Effect, Compound A
# Experimental: as §3, §4, §5
# [3] = system: phosphorylation of MEK, ERK, S6P and cyclin D1 protein in A375 cells; assay: Western blot of signaling effects, parental cells; assay type: cell-based, human; details: western blot (FIG. 10)
# Source text: (§1) Phospho-AKT (T308), phospho-AKT (S473), AKT, ERK, phospho-S6P (S235/236), S6P, cyclin D1, phospho-MEK1/2 (S217/S221), MEK1/2, MEK1, MEK2, and cleaved PARP antibodies were purchased from Cell Signaling. Primary antibodies to GAPDH, RAF-1, BRAF, and ARAF were purchased from Santa Cruz Biotechnology. Diphospho-ERK1/2 (T202/Y204) antibodies were purchased from Sigma and p27kip1 antibodies were purchased from Epitomics. Anti-Mouse IRDYE® 800CW antibody was purchased from LI-COR Biosciences. Anti-rabbit ALEXA FLUOR® 680 antibodies were purchased from Invitrogen. Compound A, Compound B, Compound C, and PLX4032 (20) were synthesized by GlaxoSmithKline Research Labs and the structures are shown in FIG. 7.
# [4] = system: 12R5-5 (A375 F11 clone with acquired resistance to Compound A); assay: Cell growth inhibition assay (Cell Titer Glo, 3 days); assay type: cell-based; details: Homo sapiens, A-375, 72 h, 12R5-5: NRAS WT, MEK1 HET 59delK, single agent, read-out: IC50, Single Agent Effect, Compound A
# Experimental: as §3, §4, §5
# [5] = system: A375 F11 cells; assay: as above; assay type: cell-based; details: Homo sapiens, 72 h, F11: NRAS WT, MEK1 WT, single agent, mean ± std, read-out: IC50, Single Agent Effect, Compound A
# Experimental: as §3, §4, §5
# [6] = system: 12R5-1 (A375 F11 clone with acquired resistance to Compound A); assay: as above; assay type: cell-based; details: Homo sapiens, A-375, 72 h, 12R5-1: NRAS WT, MEK1 HET 59delK, single agent, read-out: IC50, Single Agent Effect, Compound A
# Experimental: as §3, §4, §5
# [7] = system: 16R5-5 (A375 F11 clone with acquired resistance to Compound A); assay: as above; assay type: cell-based; details: Homo sapiens, A-375, 72 h, 16R5-5: NRAS Q61Q/K, MEK1 P387P/S, single agent, read-out: IC50, Single Agent Effect, Compound A
# Experimental: as §3, §4, §5
# [8] = system: phosphorylation of MEK, ERK, S6P in A375 clones resistant to Compound A; assay: Western blot of signaling effects, resistant clones; assay type: cell-based, human; details: western blot (FIG. 10)
# Source text: as §1
# [9] = system: 12R8-3 (A375 F11 clone with acquired resistance to Compound A); assay: Cell growth inhibition assay (Cell Titer Glo, 3 days); assay type: cell-based; details: Homo sapiens, A-375, 72 h, 12R8-3: NRAS A146A/T, MEK1 WT, single agent, read-out: IC50, Single Agent Effect, Compound A
# Experimental: as §3, §4, §5
# [10] = system: 16R6-2 (A375 F11 clone with acquired resistance to Compound A); assay: as above; assay type: cell-based; details: Homo sapiens, A-375, 72 h, 16R6-2: NRAS Q61Q/K, MEK1 P387P/S, single agent, read-out: IC50, Single Agent Effect, Compound A
# Experimental: as §3, §4, §5
# [11] = system: 12R8-1 (A375 F11 clone with acquired resistance to Compound A); assay: as above; assay type: cell-based; details: Homo sapiens, A-375, 72 h, 12R8-1: NRAS A146A/T, MEK1 WT, single agent, read-out: IC50, Single Agent Effect, Compound A
# Experimental: as §3, §4, §5
# [12] = system: A375 cells expressing MEK1C121S; assay: Proliferation of BacMAM-transduced A375 cells; assay type: cell-based; details: Homo sapiens, A-375, read-out: IC50, inhibition of proliferation
# Experimental: (§2) BacMAM constructs were generated using MEK1 cDNA and mutations in MEK1 were introduced using site directed mutagenesis. BacMAM virus particles were prepared as described in the supplemental methods. A375 cells were transduced with the indicated BacMAM virus. Forty-eight hours post transduction, cells were plated for subsequent proliferation and western blot analysis as described above.
# [13] = system: A375 cells expressing MEK1Q56P; assay: Proliferation of BacMAM-transduced A375 cells; assay type: cell-based; details: Homo sapiens, A-375, read-out: IC50, inhibition of proliferation
# Experimental: as §2
# [14] = system: A375 cells expressing MEK1K59del; assay: Proliferation of BacMAM-transduced A375 cells; assay type: cell-based; details: Homo sapiens, A-375, read-out: IC50, inhibition of proliferation
# Experimental: as §2
# [15] = system: A375 cells expressing MEK1F129L; assay: Proliferation of BacMAM-transduced A375 cells; assay type: cell-based; details: Homo sapiens, A-375, read-out: IC50, inhibition of proliferation
# Experimental: as §2
# [16] = system: A375 cells expressing MEK1P124L; assay: Proliferation of BacMAM-transduced A375 cells; assay type: cell-based; details: Homo sapiens, A-375, read-out: IC50, inhibition of proliferation
# Experimental: as §2
# [17] = system: A375 cells expressing wild-type MEK1; assay: Proliferation of BacMAM-transduced A375 cells; assay type: cell-based; details: Homo sapiens, A-375, read-out: IC50, inhibition of proliferation
# Experimental: as §2
# [18] = system: A375 cells, Mock; assay: Proliferation of BacMAM-transduced A375 cells; assay type: cell-based; details: Homo sapiens, A-375, read-out: IC50, inhibition of proliferation
# Experimental: as §2
# [19] = system: YUSIT1 clones that acquired resistance to Compound A (BRAF V600K); assay: Cell growth inhibition assay, resistant YUSIT1 clones; assay type: cell-based, human
# Source text: The YUSIT1 melanoma cells were obtained from Yale Dermatology Cell Culture Facility.
# [20] = system: 16R6-4 (A375 F11 clone with acquired resistance to Compound A); assay: Cell growth inhibition assay (Cell Titer Glo, 3 days); assay type: cell-based; details: Homo sapiens, A-375, 72 h, 16R6-4: NRAS Q61Q/K, A146A/T, MEK1 P387P/S, single agent, read-out: IC50, Single Agent Effect, Compound A
# Experimental: as §3, §4, §5
# [21] = system: 16R6-3 (A375 F11 clone with acquired resistance to Compound A); assay: as above; assay type: cell-based; details: Homo sapiens, A-375, 72 h, 16R6-3: NRAS A146A/T, MEK1 P387P/S, single agent, read-out: IC50, Single Agent Effect, Compound A
# Experimental: as §3, §4, §5
smiles,measurement,setting,value
"CC(C)(C)c1nc(-c2cccc(NS(=O)(=O)c3c(F)cccc3F)c2F)c(-c2ccnc(N)n2)s1 [Compound A, N-{3-[5-(2-Amino-4-pyrimidinyl)-2-(1,1-dimethylethyl)-1,3-thiazol-4-yl]-2-fluorophenyl}-2,6-difluorobenzenesulfonamide]",IC50,"[1]; A-375, read-out: IC50, cell growth",> 10000 nM
same,IC50,"[1]; A-375, read-out: IC50, cell growth inhibition, single agent",> 10000 nM
same,IC50,"[1]; A-375, read-out: IC50 of the combination, for Compound A",178 to 392 nM
same,IC50,[2],> 10000 nM
same,decrease of cyclin D1 protein levels,[3],more than 65%
same,"inhibition of phosphorylation of MEK, ERK, and S6P",[3],more than 75%
same,IC50,[4],> 10000 nM
same,IC50,[5],24 ± 17 nM
same,IC50,[6],> 10000 nM
same,IC50,[7],> 10000 nM
same,reduction of ERK phosphorylation,[8],less than 50%
same,reduction of S6P phosphorylation,[8],< 25%
same,IC50,[9],> 10000 nM
same,IC50,[10],> 10000 nM
same,IC50,[11],> 10000 nM
same,IC50,[12],≥ 330 nM
same,IC50,[13],≥ 420 nM
same,IC50,[14],179 nM
same,IC50,[15],140 nM
same,IC50,[16],84 nM
same,IC50,[17],28 nM
same,IC50,[18],30 nM
same,IC50,"[19]; Homo sapiens, read-out: IC50, cell growth inhibition",> 500 nM
same,reduced sensitivity compared to the parental YUSIT1 cells,"[19]; YUSIT1 clones resistant to Compound A, single agent (FIG. 9)",≥ 38 fold
same,IC50,[20],> 10000 nM
same,IC50,[21],> 10000 nM
